Converted amounts (≈) assume the structure as drawn. Read-outs that look alike come from different tables or passages of the source. Where a SMILES comes first, the peptide text is derived from it. [ ]: non-standard residue; d: D form. The star is where a group is joined. Fumaryl(OMe) = COC(=O)/C=C/C(=O)*; Dap = NC[C@H](N)C(=O)O
Tests used:
Type in all cases: cell-based, Candida albicans
C. albicans SC 5314 = experiment: Disc diffusion method; details: YNB-AS agar, 10 μg of peptide on a disc (10 μL of 1 mg mL^-1), 48 h, 30°C
Procedure: (§1) Candida albicans cells, apparently resistant to FMDP-peptides, were isolated from the individual colonies formed on the surface of YNB-SG agar medium containing FMDP-peptide, 10 μg mL^-1 or within the growth inhibitory zones around the paper discs saturated with 10 μL of the FMDP-peptide solution, 1 mg mL^-1. In both versions, the agar surface was inoculated with 10^5 cells from the overnight culture in YPD medium, washed three times with sterile water, suspended in 0.2 mL of sterile water and the cell suspension was spread on the whole surface with a sterile glass rod. Plates were incubated for 48 h at 30°C and isolated colonies were picked with a platinum loop.
(§2) Growth inhibitory activity of FMDP-oligopeptides against C. albicans SC 5314 was also determined by the disc diffusion method. […] Cells grown in these colonies were collected, re-grown in YNB-AS and tested for sensitivity to FMDP-oligopeptides.
FIGURE 3 Disc diffusion activity determination of FMDP-oligopeptides. YNB-AS agar medium, 10 μg of each peptide applied on a disc. (A) F2; (B) F3; (C) F6; (D) F7; (E) F11.

C. albicans ptr2Δ ptr22Δ = details: turbidity 531 nm, at least 80% decrease
Procedure: (§3) Strains were grown at 30°C in YPD medium (1% yeast extract, 2% peptone, and 2% glucose) and stored on YPD plates containing 2% agar. Susceptibility testing was performed in YPD and other three media: (a) RPMI-1640 w/o sodium bicarbonate, with L-glutamine + 2% glucose + 3.45% MOPS, pH adjusted to 7.0; (b) YNB-AS—Yeast Nitrogen Base w/o amino acids (contains ammonium sulfate 5 g L^-1) + 2% glucose; (c) YNB-SG—Yeast Nitrogen Base w/o amino acids and ammonium sulfate + 2% glucose + 0.2 g L^-1 sodium glutamate. In their solid version, used for the mutant generation and isolation, YNB-AS and YNB-SG contained 2% agar.
(§4) The in vitro growth inhibitory activity of antifungals was quantified by determination of minimal inhibitory concentration (MIC) values by the serial twofold dilution method, using the 96-well microtiter plates in three media: buffered RPMI-1640, YNB-AS, and YNB-SG. Conditions of the RPMI-1640-based assay were the same as outlined in the CLSI recommendations ([Clinical Laboratory Standards Institute, 2008]), except for the end-point readout that was done by spectrophotometric determination of cell density at 531 nm. Turbidity in individual wells was measured with a microplate reader (Victor^3; Perkin Elmer). MIC was defined as the lowest drug concentration that gave at least an 80% decrease in turbidity, relative to that of the drug-free growth control.
(§5) The 96-well microtiter plates were also used for determination of in vitro growth inhibitory activity in YPD and YNB-based media. Individual wells were inoculated with 5 × 10^3 cfu mL^-1 of C. albicans cells from the overnight culture in YPD medium. The inoculated plates were incubated 37°C for 24 h and then turbidity was measured with a microplate reader at 531 nm, as described above for the RPMI-1640-based assay.

C. albicans opt1Δ = details: turbidity 531 nm, at least 80% decrease
Procedure: as §3, §4, §5

C. albicans opt1–opt5Δ = details: turbidity 531 nm, at least 80% decrease
Procedure: as §3, §4, §5

C. albicans opt2Δ opt3Δ = details: turbidity 531 nm, at least 80% decrease
Procedure: as §3, §4, §5

C. albicans SC5314 = test system: C. albicans SC5314
Procedure: as §3, §4, §5

C. albicans opt5Δ = details: turbidity 531 nm, at least 80% decrease
Procedure: as §3, §4, §5

C. albicans opt4Δ = details: turbidity 531 nm, at least 80% decrease
Procedure: as §3, §4, §5

[1] = test system: C. albicans opt1–opt5Δ ptr2Δ ptr22Δ; details: turbidity 531 nm, at least 80% decrease
Procedure: as §3, §4, §5

C. albicans isolate NF3 = details: YNB-SG medium
Excerpt: as §4, §5, §1, §2

[2] = test system: C. albicans SC 5314 cells; experiment: Morphological changes, Calcofluor White staining for chitin; details: SC 5314 cells in RPMI-1640, 6 h, 30°C, F11 100 μg mL^-1
Procedure: Candida albicans cells from the overnight cultures in YPD were harvested, washed with sterile saline and suspended in the RPMI-1640 medium, to the final cell density of 10^5 cfu mL^-1. The compounds tested were added at appropriate concentrations and cultures were incubated for 6 h at 30°C, with shaking. At time intervals, samples of 0.1 mL were collected and cells were stained for chitin. The culture samples were combined with 0.1 mL aliquots of the Calcofluor White solution [0.3 mg mL^-1 in 25 mM phosphate-buffered saline (PBS), pH 7.0] and incubated for 5 min at 25°C. The cells were then harvested, washed four times with PBS, re-suspended in 0.1 mL of the fresh PBS and transferred to a microscopic slide. The stained cells were examined with the Olympus BX 60 F5 fluorescence microscope and photographs were taken using the Studio Lite software (Pixera Corporation, United States).
Since the anticandidal activity of P10 was moderate but independent on medium content and that of F11 was higher but strongly influenced by medium composition, it seemed obvious that the molecular bases of growth inhibitory activity of P10 and F11 were different and that a higher activity of F11 resulted from the presence of FMDP in its structure. To confirm whether the anticandidal activity of F11 was a consequence of GlcN6P synthase inhibition by FMDP, a morphology of SC 5314 cells treated with F11 was compared to that of the untreated cells. The cells were stained with Calcofluor White, the fluorescent brightener that binds specifically to chitin in the fungal cell wall. […] Since it is well known that the primary septum is built of chitin, this finding confirms that the action of F11 results in inhibition of chitin biosynthesis.

[3] = RPMI-1640 medium, MOPS pH 7.0, CLSI conditions

## COC(=O)/C=C/C(=O)NC[C@H](NC(=O)[C@H](CCSC)NC(=O)[C@@H](NC(=O)[C@@H]1CCCN1C(=O)[C@H](CC(C)C)NC(=O)[C@@H](N)CCCCN)C(C)C)C(=O)O [Peptide F6, Lys-Leu-Pro-Val-Met-FMDP] (H-KLPVM[Dap](Fumaryl(OMe))-OH; N-terminus and C-terminus assumed)
C. albicans SC 5314
  Appearance of growth inhibitory zone: clear
C. albicans ptr2Δ ptr22Δ; [3]
  MIC: >128 µg/mL
C. albicans ptr2Δ ptr22Δ; YNB-AS medium, 37°C, 24 h
  MIC: 4 µg/mL (≈ 5.1 µM)
C. albicans ptr2Δ ptr22Δ; YNB-SG medium, 37°C, 24 h
  MIC: 0.5 µg/mL (≈ 0.637 µM)
C. albicans opt1Δ; [3]
  MIC: >128 µg/mL
C. albicans opt1Δ; YNB-AS medium, 37°C, 24 h
  MIC: 8 µg/mL (≈ 10.2 µM)
C. albicans opt1Δ; YNB-SG medium, 37°C, 24 h
  MIC: 4 µg/mL (≈ 5.1 µM)
C. albicans opt1–opt5Δ; [3]
  MIC: >128 µg/mL
C. albicans opt1–opt5Δ; YNB-AS medium, 37°C, 24 h
  MIC: >128 µg/mL
C. albicans opt1–opt5Δ; YNB-SG medium, 37°C, 24 h
  MIC: 64 µg/mL (≈ 81.5 µM)
C. albicans opt2Δ opt3Δ; [3]
  MIC: >128 µg/mL
C. albicans opt2Δ opt3Δ; YNB-AS medium, 37°C, 24 h
  MIC: 32 µg/mL (≈ 40.8 µM)
C. albicans opt2Δ opt3Δ; YNB-SG medium, 37°C, 24 h
  MIC: 32 µg/mL (≈ 40.8 µM)
C. albicans SC5314; SC 5314, RPMI-1640 medium, MOPS pH 7.0, CLSI conditions, turbidity 531 nm, at least 80% decrease
  MIC: >128 µg/mL
C. albicans SC5314; SC 5314, YNB + L-Gln (0.3 g L^-1) pH 5.0
  MIC: 4.0 µg/mL
C. albicans SC5314; SC 5314, YNB + L-Gln (0.3 g L^-1) pH 7.0
  MIC: 128 µg/mL
C. albicans SC5314; SC 5314, YNB + amino acid mixture (composition as in RPMI-1640)
  MIC: >128 µg/mL
C. albicans SC5314; SC 5314, YNB-AS medium, 5 × 10^3 cfu mL^-1, 37°C, 24 h, turbidity 531 nm, at least 80% decrease
  MIC: 4 µg/mL (≈ 5.1 µM)
C. albicans SC5314; SC5314, YNB-SG medium (Table 8)
  MIC: 4 µg/mL (≈ 5.1 µM)
C. albicans SC5314; SC 5314, YNB-SG medium, 5 × 10^3 cfu mL^-1, 37°C, 24 h, turbidity 531 nm, at least 80% decrease
  MIC: 0.5 µg/mL (≈ 0.637 µM)
C. albicans SC5314; SC 5314, growth medium YNB-SG (Table 6)
  MIC: 0.5 µg/mL (≈ 0.637 µM)
C. albicans SC5314; YNB-SG + Ala-Ala-Ala-Ala 1 g L^-1
  Increase of MICs in presence of Ala-Ala-Ala-Ala: 16- to 64 fold
C. albicans SC5314; YNB-based media + Ala-Ala or Ala-Ala-Ala, 1 g L^-1, 'similar effect' = complete elimination of activity as with Bacto Peptone
  Effect of supplementation with Ala-Ala or Ala-Ala-Ala on activity: no effect
C. albicans SC5314; wild type SC5314
  MIC in YNB-AS, times higher than in YNB-SG: 8–16 times
C. albicans opt5Δ; [3]
  MIC: >128 µg/mL
C. albicans opt5Δ; YNB-AS medium, 37°C, 24 h
  MIC: 8 µg/mL (≈ 10.2 µM)
C. albicans opt5Δ; YNB-SG medium, 37°C, 24 h
  MIC: 4 µg/mL (≈ 5.1 µM)
C. albicans opt4Δ; [3]
  MIC: >128 µg/mL
C. albicans opt4Δ; YNB-AS medium, 37°C, 24 h
  MIC: 8 µg/mL (≈ 10.2 µM)
C. albicans opt4Δ; YNB-SG medium, 37°C, 24 h
  MIC: 8 µg/mL (≈ 10.2 µM)
[1]; [3]
  MIC: >128 µg/mL
[1]; YNB-AS medium, 37°C, 24 h
  MIC: >128 µg/mL
[1]; YNB-SG medium, 37°C, 24 h
  MIC: 64 µg/mL (≈ 81.5 µM)
C. albicans isolate NF3
  MIC: 4 µg/mL (≈ 5.1 µM)
[2]
  Morphological changes (primary septum / chitin): analogous to those observed for F11-treated cells

From article PMC5673977, “Transport Deficiency Is the Molecular Basis of Candida albicans Resistance to Antifungal Oligopeptides” (Frontiers in Microbiology, 2017)
